Data as given in US11376234B2, “Ammonia metabolism promoter” (Kao Corporation, priority 2018, dated 2022).
Marks after values point to notes of the source that are not given here.

Legend:
[1] = test system: primary cultured hepatocytes; test: Urea production of hepatocytes with citrulline and arginine (Reference Example); assay type: cell-based; conditions: 5 mM ammonium chloride, 24 hours; Arg+Cit 0.5 mM each, Cit 1 mM; vs control
Experimental: Cells were recovered from the liver of each mouse and dead cells were removed, in the same procedure as in Example 1. Thereafter, cells were suspended in a DMEM medium, seeded at 10^5 cells/well in a 24-well plate, and cultured.
The cells 24 hours after seeding were washed twice with PBS. Thereafter, the medium was replaced with an FBS, arginine, leucine free DMEM medium (D9443, Sigma), and 5 mM of ammonium chloride (control), ammonium chloride+0.5 mM of L-arginine+0.5 mM of L-citrulline (Arg+Cit), or ammonium chloride+1 mM of L-citrulline (Cit) was added thereto. The culture supernatant was collected 24 hours later, and the urea contained therein was quantitatively determined with QuantiChrom Urea Assay Kit (BioAssay Systems).

primary hepatocytes = test: Amount of change in ammonia in culture medium of primary hepatocytes (Example 2); assay type: cell-based, mouse; conditions: for Ammonia change amount in culture medium, Increasing rate relative to control (%): 5 mM ammonium chloride, 24 hours, control = 100; for amount of change in ammonia in the culture medium relative to the control (in words): Dunnett's test, n=4
Experimental: For cells, a hepatocyte culture kit (derived from a 10-week-old male Balb/c mouse, 24 wells, 1×10^5 cells/well, Cosmo Bio) was used. A final concentration of 5 mM of ammonium chloride (015-02991, Wako) and 1.4 μM or 4.2 μM of the following catechins (EGC, Cg or ECg) were added to a medium containing high glucose DMEM (31053028, Gibco) containing GlutaMAX (35050-061, Gibco), penicillin/streptomycin (168-23191, Wako) and ascorbic acid (014-04801, Wako), and the cells were cultured therein: EGC (NH020203, Nagara Science Co., Ltd.); Cg (NH 021302, Nagara Science Co., Ltd.); and ECg (NH 020302, Nagara Science Co., Ltd.). Cells cultured in a medium without any added catechins were used as a control. The culture supernatant was collected 24 hours later, and the ammonia contained therein was quantitatively determined using an ammonia assay kit (Abcam). The decrement in the ammonia amount in the culture medium 24 hour after addition of ammonium chloride and catechins relative to the ammonia amount at the time of addition was defined as an amount of change in ammonia in the culture medium.
Each value in Table 1 represents the increasing rate of the amount of change in ammonia relative to that of the control. The statistical processing was performed by using multigroup comparison by Dunnett's test for n=4 per group (**: p <0.001, *: p<0.05).

Compound	amount of urea production by hepatocytes [1]	Ammonia change amount in culture medium, Increasing rate relative to control (%) (primary hepatocytes; 4.2 μM)	Ammonia change amount in culture medium, Increasing rate relative to control (%) (primary hepatocytes; 1.4 μM)	amount of change in ammonia in the culture medium relative to the control (in words) (primary hepatocytes; 4.2 μM)
NC(=O)NCCC[C@H](N)C(=O)O [Cit, L-citrulline]	significantly increased			
O=C(O[C@@H]1Cc2c(O)cc(O)cc2O[C@@H]1c1ccc(O)c(O)c1)c1cc(O)c(O)c(O)c1 [ECg, epicatechin gallate]		126%		
Oc1cc(O)c2c(c1)O[C@H](c1cc(O)c(O)c(O)c1)[C@H](O)C2 [EGC, epigallocatechin]		186** %	122	significantly increases
catechin gallate [Cg]		174* %		significantly increases
